In US7015237B2, “Pyridine matrix metalloproteinase inhibitors” (Warner-Lambert Company, priority 2001, dated 2006) one finds melting point and IC50 data, which are given here for six compounds.

The structures appear in SMILES notation.

The target in data set [1] is T1, MMP-1 (full-length interstitial collagenase) (Homo sapiens, UniProt P03956).
T1 sequence (P03956 100-469): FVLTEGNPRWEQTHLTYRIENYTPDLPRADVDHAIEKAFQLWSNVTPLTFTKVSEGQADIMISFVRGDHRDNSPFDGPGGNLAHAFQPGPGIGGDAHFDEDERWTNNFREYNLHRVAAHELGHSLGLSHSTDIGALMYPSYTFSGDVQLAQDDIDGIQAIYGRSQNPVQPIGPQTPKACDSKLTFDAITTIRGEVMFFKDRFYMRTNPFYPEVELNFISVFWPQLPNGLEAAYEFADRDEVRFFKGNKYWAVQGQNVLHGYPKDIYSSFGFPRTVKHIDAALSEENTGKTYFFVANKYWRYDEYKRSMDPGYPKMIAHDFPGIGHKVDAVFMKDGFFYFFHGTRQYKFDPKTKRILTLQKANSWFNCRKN
In words: Thiopeptolide substrate hydrolysis assay, MMP-1. In kind it is biochemical. The settings on record: pH 7.0, 22° C. The text has this:
The invention compounds of Formula I have been evaluated in standard assays for their ability to inhibit the catalytic activity of various MMP enzymes. The assays used to evaluate the biological activity of the invention compounds are well known and routinely used by those skilled in the study of MMP inhibitors and their use to treat clinical conditions.
(§1) The assays measure the amount by which a test compound reduces the hydrolysis of a thiopeptolide substrate catalyzed by a matrix metalloproteinase enzyme. Such assays are described in detail by Ye et al., in Biochemistry, 1992; 31(45):11231–11235, which is incorporated herein by reference.
Thiopeptolide substrates show virtually no decomposition or hydrolysis at or below neutral pH in the absence of a matrix metalloproteinase enzyme. A typical thiopeptolide substrate commonly utilized for assays is Ac-Pro-Leu-Gly-thioester-Leu-Leu-Gly-OEt. […] The change in absorbance at 405 nm is monitored on a Thermo Max microplate reader (Molecular Devices, Menlo Park, Calif.) at room temperature (22° C.). […]
Representative compounds have been evaluated for their ability to inhibit various matrix metalloproteinase enzymes. […] Test compounds were evaluated at various concentrations to determine their respective IC50 values.

Data set [2] has as its target MMP-13 (catalytic domain of collagenase 3) (Homo sapiens, UniProt P45452). The data set can be described thus: Thiopeptolide substrate hydrolysis assay, MMP-13. In kind it is biochemical. The settings on record: catalytic domain of collagenase 3; Table 1; read-out: MMP-13 IC50.
Text: The assays used to evaluate the biological activity of the invention compounds are well known and routinely used by those skilled in the study of MMP inhibitors and their use to treat clinical conditions.
as §1
Thiopeptolide substrates show virtually no decomposition or hydrolysis at or below neutral pH in the absence of a matrix metalloproteinase enzyme. A typical thiopeptolide substrate commonly utilized for assays is Ac-Pro-Leu-Gly-thioester-Leu-Leu-Gly-OEt. A 100-μL assay mixture will contain 50 mM of N-2-hydroxyethylpiperazine-N′-2-ethanesulfonic acid buffer (“HEPES”) at pH 7.0, 10 mM CaCl2, 100 μM thiopeptolide substrate, and 1 mM 5,5′-dithio-bis-(2-nitro-benzoic acid) (DTNB). The thiopeptolide substrate concentration may be varied from, for example, 10 to 800 μM to obtain Km and Kcat values. The change in absorbance at 405 nm is monitored on a Thermo Max microplate reader (Molecular Devices, Menlo Park, Calif.) at room temperature (22° C.). The calculation of the amount of hydrolysis of the thiopeptolide substrate is based on E412=13600 M^−1 cm^−1 for the DTNB-derived product 3-carboxy-4-nitrothiophenoxide. Assays are carried out with and without matrix metalloproteinase inhibitor compounds, and the amount of hydrolysis is compared for a determination of inhibitory activity of the test compounds.
In the tables, MMP-1 refers to full-length interstitial collagenase; MMP-3 refers to the catalytic domain of stromelysin-1; MMP-13 refers to the catalytic domain of collagenase 3. Test compounds were evaluated at various concentrations to determine their respective IC50 values.

Usually melting point stands for the temperature of the solid-liquid transition. The compound `O=C(OCc1ccc2c(c1)OCO2)c1cncc(C(=O)OCc2ccc3c(c2)OCO3)c1` [Example 5, Pyridine-3,5-dicarboxylic acid bis-(1,3-benzodioxol-5-ylmethyl) ester] came in with a melting point of 113 to 114 °C. The same measure, in the same setting: to `O=C(NCc1ccc(F)cc1)c1cncc(C(=O)NCc2ccc(F)cc2)c1` [Example 9, Pyridine-3,5-dicarboxylic acid bis-(4-fluoro-benzylamide)] belongs 216 to 218 °C; to `O=C(NCc1ccc(Cl)cc1)c1cncc(C(=O)NCc2ccc(Cl)cc2)c1` [Example 2, Pyridine-3,5-dicarboxylic acid bis-(4-chloro-benzylamide)], 224 to 225 °C. In general, IC50 refers to the concentration that inhibits the measured activity by half. In the case of `O=C(NCc1ccc2c(c1)OCO2)c1cncc(C(=O)NCc2ccc3c(c2)OCO3)c1` [Example 7, Pyridine-3,5-dicarboxylic acid bis-[(1,3-benzodioxol-5-ylmethyl)-amide]], the melting point fell in the range of 194 to 195 °C. The midpoint of inhibition in data set [1], the IC50, lay at 30 µM. For the same compound, the IC50 in data set [2] was 2.3 µM.

`COc1ccc(CNC(=O)c2cncc(C(=O)NCc3ccc(OC)cc3)c2)cc1` [Example 6, Pyridine-3,5-dicarboxylic acid bis-(4-methoxy-benzylamide)] displayed a melting point of 224 to 225 °C. For the same compound, the IC50 in data set [2] came to 8.7 µM. Compound `O=C(NCc1cccc(Cl)c1)c1cncc(C(=O)NCc2cccc(Cl)c2)c1` [Example 3, Pyridine-3,5-dicarboxylic acid bis-(3-chloro-benzylamide)] returned a melting point of 185 to 186 °C. The IC50 in data set [2] is 30 µM.
